We go through 3 compounds from publication doi:10.64898/2025.12.18.695077v1, “Stereospecific GPG acylation by CLN8 drives BMP biosynthesis and its loss leads to Batten disease” (biorxiv, 2025).

Assay [1] has as its target T1, CLN8 (tag-cleaved, codon-optimised human CLN8 from yeast) (Homo sapiens, UniProt Q9UBY8).
T1 construct: full-length, C-terminal 6xHis tag cut with Factor Xa; expressed in S. cerevisiae W303.1B; homodimer in LMNG; residues 1-15 and 261-286 disordered
Kind of assay: cryo-EM structure, […] A. In kind it is binding. As to conditions: covalent acyl-enzyme intermediate at H138 proposed (continuous density not resolved), CoA at the dimer interface, incubated with 100 uM.

Assay [2] addresses T1, CLN8 (tag-cleaved, codon-optimised human CLN8 from yeast). In words: cryo-EM structure, […] A. In kind it is binding. The note with it: co-purified; transmembrane pocket of each monomer at the dimer interface, not the active site.

For the compound `CCCCCCCC/C=C\CCCCCCCC(=O)SCCNC(=O)CCNC(=O)[C@H](O)C(C)(C)COP(=O)(O)OP(=O)(O)OC[C@H]1O[C@@H](n2cnc3c(N)ncnc32)[C@H](O)[C@@H]1OP(=O)(O)O` [C18:1-CoA], the “cryo-EM structure, 2.7 A” value in assay [1] (oleoyl chain modelled in the active site) was “we determined cryo-EM structures of CLN8 prepared in the presence of either C18:1-CoA or C22:6-CoA”. Consider `CC/C=C\C/C=C\C/C=C\C/C=C\C/C=C\C/C=C\CCC(=O)SCCNC(=O)CCNC(=O)[C@H](O)C(C)(C)COP(=O)(O)OP(=O)(O)OC[C@H]1O[C@@H](n2cnc3c(N)ncnc32)[C@H](O)[C@@H]1OP(=O)(O)O` [C22:6-CoA], for which the “cryo-EM structure, 2.7 A” value in assay [1] (C22:6 chain modelled in the active site) is listed as “we determined cryo-EM structures of CLN8 prepared in the presence of either C18:1-CoA or C22:6-CoA”. For `CC(C)(COP(=O)(O)OP(=O)(O)OC[C@H]1O[C@@H](n2cnc3c(N)ncnc32)[C@H](O)[C@@H]1OP(=O)(O)O)[C@@H](O)C(=O)NCCC(=O)NCCS` [CoA], the “cryo-EM structure, 3.65 A” value in assay [2] is given as “we observed two coenzyme A (CoA) molecules bound in pockets located within the transmembrane region”.
